Assay results reported in doi:10.1101/504357v1 (biorxiv, 2018).
≈ marks a conversion by molar mass, not a printed value.

Key:
S. pyogenes = assay: microbe, parasite or virus in culture; parameters: species or system Streptococcus pyogenes ATCC 19615; conditions: Streptococcus pyogenes, read-out: MIC (ug/mL)
HuDHFR = biological target: T1, HuDHFR (Homo sapiens, UniProt P00374); assay: DHFR inhibition assay; format: biochemical
T1 sequence (P00374 1-187): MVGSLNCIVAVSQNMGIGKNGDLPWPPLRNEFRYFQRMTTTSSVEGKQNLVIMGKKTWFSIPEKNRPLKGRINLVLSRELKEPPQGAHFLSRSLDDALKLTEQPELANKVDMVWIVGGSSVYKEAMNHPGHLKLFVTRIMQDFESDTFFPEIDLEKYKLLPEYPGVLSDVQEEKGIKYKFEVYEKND

Row | SMILES | MIC (S. pyogenes) | IC50 (HuDHFR)
1 | CCc1nc(N)nc(N)c1C#CC(C)c1cc(O)c(O)c(-c2ccncc2)c1 (stereo not drawn) [compound 32] | 0.312 µg/mL (≈ 0.831 µM) | –
2 | CCc1nc(N)nc(N)c1C#C[C@@H](C)c1ccc(OC)c(-c2ccncc2)c1 [compound 23] | ≤ 0.039 µg/mL | 68 ± 7 nM
3 | CCc1nc(N)nc(N)c1C#CCc1cc(-c2ccccc2C(=O)O)ccc1OC [compound 6] | 0.625 µg/mL (≈ 1.55 µM) | –
4 | CCc1nc(N)nc(N)c1C#C[C@@H](C)c1cc(-c2cc(C)nc(C)c2)ccc1OC(F)(F)F [compound 13] | 0.156 µg/mL (≈ 0.342 µM) | 167 ± 9 nM
5 | CCc1nc(N)nc(N)c1C#C[C@H](C)c1cc(-c2ccc(C(=O)O)cc2)ccc1OC [compound 4] | 0.078 µg/mL (≈ 0.187 µM) | –
6 | CCc1nc(N)nc(N)c1C#CC(C)c1cc(-c2ccncc2)cc(F)c1OC (stereo not drawn) [compound 17] | ≤ 0.039 µg/mL | 234 ± 16 nM
7 | CCc1nc(N)nc(N)c1C#C[C@H](C)c1cc(OC)cc(-c2ccc(C(=O)O)cc2)c1 [compound 3] | ≤ 0.039 µg/mL | –
8 | CCc1nc(N)nc(N)c1C#CC(C)c1cc(-c2ccncc2)cc2c1OCO2 (stereo not drawn) [compound 31] | ≤ 0.039 µg/mL | –
9 | CCc1nc(N)nc(N)c1C#CCc1cc(-c2ccc(C(=O)O)cc2)ccc1OC [compound 7] | 0.078 µg/mL (≈ 0.194 µM) | –
10 | CCc1nc(N)nc(N)c1C#C[C@@H](C)c1cc2c(c(-c3ccncc3)c1)OCO2 [compound 21] | ≤ 0.039 µg/mL | 191 ± 12 nM
11 | CCc1nc(N)nc(N)c1C#CC(C)c1cc2c(c(-c3ccncc3)c1)OCCO2 (stereo not drawn) [compound 20] | ≤ 0.039 µg/mL | –
12 | CCc1nc(N)nc(N)c1C#C[C@H](C)c1cc2c(c(-c3ccncc3)c1)OCO2 [compound 22] | ≤ 0.039 µg/mL | 85 ± 10 nM
13 | CCc1nc(N)nc(N)c1C#C[C@H](C)c1cc(OC)cc(-c2ccncc2)c1 [compound 28] | ≤ 0.039 µg/mL | –
14 | CCc1nc(N)nc(N)c1C#CC(C)c1cc(-c2cc(C)nc(C)c2)ccc1OC(F)(F)F (stereo not drawn) [compound 15] | 0.312 µg/mL (≈ 0.685 µM) | –
15 | CCc1nc(N)nc(N)c1C#CC(C)c1cc(F)cc(-c2cc(C)nc(C)c2)c1 (stereo not drawn) [compound 16] | ≤ 0.039 µg/mL | –
16 | CCc1nc(N)nc(N)c1C#C[C@H](C)c1cc(-c2ccncc2)ccc1OC [compound 25] | ≤ 0.039 µg/mL | –

Row | SMILES | MIC (S. pyogenes) | IC50 (HuDHFR)
17 | CCc1nc(N)nc(N)c1C#CCc1cc(-c2cc(C)nc(C)c2)ccc1OC(F)(F)F [compound 14] | 0.625 µg/mL (≈ 1.42 µM) | –
18 | CCc1nc(N)nc(N)c1C#C[C@H](C)c1cc(OC)c(OC)c(-c2ccncc2)c1 [compound 30] | ≤ 0.039 µg/mL | –
19 | CCc1nc(N)nc(N)c1C#C[C@@H](C)c1cc(-c2ccc(C(=O)O)cc2)ccc1OC [compound 5] | 0.078 µg/mL (≈ 0.187 µM) | –
20 | CCc1nc(N)nc(N)c1C#CC(C)c1cc(OC)c(OC)c(-c2ccncc2)c1 (stereo not drawn) [compound 29] | ≤ 0.039 µg/mL | –
21 | CCc1nc(N)nc(N)c1C#CCc1cc(OC)cc(-c2ccc(C(=O)O)cc2)c1 [compound 1] | ≤ 0.039 µg/mL | –
22 | CCc1nc(N)nc(N)c1C#C[C@H](C)c1cc(-c2cc(C)nc(C)c2)ccc1OC(F)(F)F [compound 12] | 0.312 µg/mL (≈ 0.685 µM) | –
23 | CCc1nc(N)nc(N)c1C#CC(C)c1cccc(-c2cc(C)nc(C)c2)c1 (stereo not drawn) [compound 18] | ≤ 0.039 µg/mL | –
24 | CCc1nc(N)nc(N)c1C#CC(C)c1cc2c(c(-c3cc(C)nc(C)c3)c1)OCCO2 (stereo not drawn) [compound 19] | ≤ 0.039 µg/mL | –
25 | CCc1nc(N)nc(N)c1C#C[C@@H](C)c1cc(-c2cc(C)nc(C)c2)ccc1Cl [compound 11] | 0.625 µg/mL (≈ 1.54 µM) | 207 ± 13 nM
26 | CCc1nc(N)nc(N)c1C#CC(C)c1cc(-c2cc(C)nc(C)c2)ccc1Cl (racemic) [compound 10] | 0.312 µg/mL (≈ 0.769 µM) | –
27 | CCc1nc(N)nc(N)c1C#C[C@H](C)c1cc(-c2cc(C)nc(C)c2)ccc1Cl [compound 9] | ≤ 0.039 µg/mL | 210 ± 18 nM
28 | CCc1nc(N)nc(N)c1C#C[C@@H](C)c1cc(OC)cc(-c2ccncc2)c1 [compound 27] | ≤ 0.039 µg/mL | –
29 | CCc1nc(N)nc(N)c1C#C[C@@H](C)c1cc(OC)cc(-c2ccc(C(=O)O)cc2)c1 [compound 2] | ≤ 0.039 µg/mL | –
30 | CCc1nc(N)nc(N)c1C#C[C@@H](C)c1cc(-c2ccncc2)ccc1OC [compound 26] | ≤ 0.039 µg/mL | –
31 | CCc1nc(N)nc(N)c1C#C[C@H](C)c1ccc(OC)c(-c2ccncc2)c1 [compound 24] | ≤ 0.039 µg/mL | 74 ± 7 nM
